Measured values from US20250367129A1, “Lipid Compounds and Uses Thereof” (Pfizer Inc., priority 2022, published 2025).

How the values were obtained:
[1] = LNP size and polydispersity index by Malvern Zetasizer dynamic light scattering (CA HA modFlu mRNA LNPs); assay type: physicochemical; conditions: DLS; for Size (nm): LNP of the ionizable lipid:cholesterol:DSPC:ALC-0159 about 46.3:42.7:9.4:1.6, N:P about 6:1, CA HA modFlu mRNA; for PDI: LNP with CA HA modFlu mRNA
Procedure: (§1) Lipid nanoparticles were prepared and tested according to the general procedures described in U.S. Pat. No. 9,737,619 (PCT Pub. No. WO2015/199952) and U.S. Pat. No. 10,166,298 (PCT Pub. No. WO 2017/075531) and PCT Pub. No. WO2020/146805. The novel ionizable lipids of the invention, cholesterol, distearoylphosphatidylcholine (DSPC) and ALC-0159 2-[(polyethylene glycol)-2000]-N,N ditetradecylacetamide were solubilized in ethanol at a molar ratio of about 46.3:42.7:9.4:1.6. Lipid nanoparticles were made by mixing the lipids containing organic phase with the mRNA containing aqueous phase using an N:P ratio of about 6:1. The mRNA was diluted in buffer. Syringe pumps were used to mix the ethanolic lipid solution with the mRNA aqueous solution. The ethanol was then removed, and the external buffer replaced with another buffer (e.g., Tris) by dialysis. Finally, the lipid nanoparticles were filtered.
(§2) Total RNA concentration and encapsulation efficiency was assessed using the RiboGreen RNA quantitation assay. RNA integrity pre and post formulation was monitored by Agilent Fragment Analyzer capillary gel electrophoresis. Malvern Zetasizer dynamic light scattering (DLS) was used to determine LNP size and polydispersity index (PDI). In vitro expression of the novel ionizable lipid nanoparticles was assessed in HEK293F and Hela cells similar to described in Example 72. Nuclear count and identification of cells stained positive for gene of interest was done on an Opera Phenix high content imager (PerkinElmer, USA).

Hela cells = experiment: In vitro expression of novel ionizable lipid nanoparticles, high content imaging (CA HA modFlu mRNA); assay type: cell-based; conditions: LNP with CA HA modFlu mRNA
Procedure: (§3) Plated Hek293T or Hela cells were dosed with lipid nanoparticles in a total volume of 40 μl cell culture media and incubated overnight at 37° C. and 5% CO2. After fixation with 4% paraformaldehyde in PBS cells were washed in PBS containing 0.3% Triton-X100 and 3% BSA (w/v), followed by nuclear staining with Hoechst and antibody staining for the encoded gene of interest. Nuclear count and identification of cells stained positive for gene of interest was done on an Opera Phenix high content imager (PerkinElmer, USA).
as §1, §2

HEK293F cells = experiment: as above; assay type: cell-based; conditions: LNP with CA HA modFlu mRNA
Procedure: as §3, §1, §2

[2] = Encapsulation efficiency, RiboGreen RNA quantitation assay (CA HA modFlu mRNA LNPs); assay type: physicochemical; conditions: LNP with CA HA modFlu mRNA
Procedure: as §1, §2

For `CCCCCCCC(CCCCCCC)C(=O)O[C@@H]1CC2(CCN(CCO)CC2)C[C@H]1OC(=O)C(CCCCCCC)CCCCCCC` (racemic) [Example 52, rac-(2R,3R)-8-(2-hydroxyethyl)-8-azaspiro[4.5]decane-2,3-diyl bis(2-heptylnonanoate)], the “Size (nm)” value [1] was 66 nm, the PDI [1] was 0.088 and the “EC50 Hela (ng/well)” value (Hela cells) was 11.0 ng/well. For the same compound, the “EC50 Hek293F (ng/well)” value (HEK293F cells) was 3.3 ng/well and the EE % [2] was 99%.
With `CCCCCCCC(CCCCCCC)C(=O)O[C@@H]1CC2(CCN(CCCO)C2)C[C@H]1OC(=O)C(CCCCCCC)CCCCCCC` (racemic) [Example 53, rac-(7R,8R)-2-(3-hydroxypropyl)-2-azaspiro[4.4]nonane-7,8-diyl bis(2-heptylnonanoate)] the “Size (nm)” value [1] was 89 nm, the PDI [1] was 0.090 and the “EC50 Hela (ng/well)” value (Hela cells) was 29.5 ng/well. For the same compound, the “EC50 Hek293F (ng/well)” value (HEK293F cells) was 2.3 ng/well and the EE % [2] was 94%.
With `CCCCCCCC(CCCCCCC)C(=O)O[C@@H]1CC2(CCN(CCCO)CC2)C[C@H]1OC(=O)C(CCCCCCC)CCCCCCC` (racemic) [Example 54, rac-(2R,3R)-8-(3-hydroxypropyl)-8-azaspiro[4.5]decane-2,3-diyl bis(2-heptylnonanoate)] the “Size (nm)” value [1] was 71 nm, the PDI [1] was 0.101 and the “EC50 Hela (ng/well)” value (Hela cells) was 3.6 ng/well. The “EC50 Hek293F (ng/well)” value (HEK293F cells) was 1.5 ng/well and the EE % [2] was 98%.
With `CCCCCCCC(CCCCCCC)C(=O)O[C@@H]1CC2(CCN(CCCNc3c(NC)c(=O)c3=O)CC2)C[C@H]1OC(=O)C(CCCCCCC)CCCCCCC` (racemic) [Example 55, rac-(2R,3R)-8-(3-((2-(methylamino)-3,4-dioxocyclobut-1-en-1-yl)amino)propyl)-8-azaspiro[4.5]decane-2,3-diyl bis(2-heptylnonanoate)] the “Size (nm)” value [1] was 65 nm, the PDI [1] was 0.124 and the “EC50 Hela (ng/well)” value (Hela cells) was 45.0 ng/well. The “EC50 Hek293F (ng/well)” value (HEK293F cells) was 21.4 ng/well and the EE % [2] was 100%.
For `CCCCCCCC(CCCCCCC)C(=O)O[C@@H]1CC2(CCN(CCCCCO)CC2)C[C@H]1OC(=O)C(CCCCCCC)CCCCCCC` (racemic) [Example 56, rac-(2R,3R)-8-(5-hydroxypentyl)-8-azaspiro[4.5]decane-2,3-diyl bis(2-heptylnonanoate)], the “Size (nm)” value [1] was 81 nm, the PDI [1] was 0.063 and the “EC50 Hela (ng/well)” value (Hela cells) was 0.96 ng/well. The “EC50 Hek293F (ng/well)” value (HEK293F cells) was 0.60 ng/well and the EE % [2] was 98%.
With `CCCCCCCCC(CCCCCCCC)C(=O)O[C@@H]1CC2(CCN(CCCCO)CC2)C[C@H]1OC(=O)C(CCCCCCCC)CCCCCCCC` (racemic) [Example 59, rac-(2R,3R)-8-(4-hydroxybutyl)-8-azaspiro[4.5]decane-2,3-diyl bis(2-octyldecanoate)] the “Size (nm)” value [1] was 80 nm, the PDI [1] was 0.091 and the “EC50 Hela (ng/well)” value (Hela cells) was 34.6 ng/well. For the same compound, the “EC50 Hek293F (ng/well)” value (HEK293F cells) was 2.3 ng/well and the EE % [2] was 97%.
In the case of `CCCCCCCCCCCCC(CCCCCCC)C(=O)O[C@@H]1CC2(CCN(CCCCO)CC2)C[C@H]1OC(=O)C(CCCCCCC)CCCCCCCCCCCC` (mixture of isomers) [Example 60, rac-(2R,3R)-8-(4-hydroxybutyl)-8-azaspiro[4.5]decane-2,3-diyl bis(2-heptyltetradecanoate)], the “Size (nm)” value [1] is reported as 94 nm, the PDI [1] is reported as 0.117 and the “EC50 Hela (ng/well)” value (Hela cells) is reported as >50 ng/well. For the same compound, the “EC50 Hek293F (ng/well)” value (HEK293F cells) was 1.6 ng/well and the EE % [2] was 98%.
With `CCCCCCCCC(CCCCCC)C(=O)O[C@@H]1CC2(CCN(CCCCO)CC2)C[C@H]1OC(=O)C(CCCCCC)CCCCCCCC` (mixture of isomers) [Example 61, rac-(2R,3R)-8-(4-hydroxybutyl)-8-azaspiro[4.5]decane-2,3-diyl bis(2-hexyldecanoate)] the “Size (nm)” value [1] was 77 nm, the PDI [1] was 0.094 and the “EC50 Hela (ng/well)” value (Hela cells) was 1.6 ng/well. The “EC50 Hek293F (ng/well)” value (HEK293F cells) was 1.0 ng/well and the EE % [2] was 99%.
With `CCCCCCCC(CCCCCCC)OC(=O)CCC(=O)O[C@@H]1CC2(CCN(CCCCO)CC2)C[C@H]1OC(=O)CCC(=O)OC(CCCCCCC)CCCCCCC` (racemic) [Example 62, rac-O,O′-((2R,3R)-8-(4-hydroxybutyl)-8-azaspiro[4.5]decane-2,3-diyl) di(pentadecan-8-yl) disuccinate] the “Size (nm)” value [1] was 161 nm, the PDI [1] was 0.090 and the “EC50 Hela (ng/well)” value (Hela cells) was 1.0 ng/well. The “EC50 Hek293F (ng/well)” value (HEK293F cells) was 0.36 ng/well and the EE % [2] was 99%.
With `CCCCCCCC(CCCCCCC)OC(=O)CCCCCC(=O)O[C@@H]1CC2(CCN(CCCCO)CC2)C[C@H]1OC(=O)CCCCCC(=O)OC(CCCCCCC)CCCCCCC` (racemic) [Example 63, rac-O′^1,O^1-((2R,3R)-8-(4-hydroxybutyl)-8-azaspiro[4.5]decane-2,3-diyl) 7,7′-di(pentadecan-8-yl) di(heptanedioate)] the “Size (nm)” value [1] was 107 nm, the PDI [1] was 0.060 and the “EC50 Hela (ng/well)” value (Hela cells) was 0.58 ng/well. The “EC50 Hek293F (ng/well)” value (HEK293F cells) was 0.39 ng/well and the EE % [2] was 99%.
In the case of `CCCCCCCC(CCCCCCC)C(=O)OCCCCCC(=O)O[C@@H]1CC2(CCN(CCCCO)CC2)C[C@H]1OC(=O)CCCCCOC(=O)C(CCCCCCC)CCCCCCC` (racemic) [Example 64, rac-(((2R,3R)-8-(4-hydroxybutyl)-8-azaspiro[4.5]decane-2,3-diyl)bis(oxy))bis(6-oxohexane-6,1-diyl) bis(2-heptylnonanoate)], the “Size (nm)” value [1] is reported as 110 nm, the PDI [1] is reported as 0.056 and the “EC50 Hela (ng/well)” value (Hela cells) is reported as 0.69 ng/well. The “EC50 Hek293F (ng/well)” value (HEK293F cells) was 0.64 ng/well and the EE % [2] was 99%.
In the case of `CCCCCCCCC(CCCCC)C(=O)O[C@@H]1CC2(CCN(CCCCO)CC2)C[C@H]1OC(=O)C(CCCCC)CCCCCCCC` (mixture of isomers) [Example 65, rac-(2R,3R)-8-(4-hydroxybutyl)-8-azaspiro[4.5]decane-2,3-diyl bis(2-pentyldecanoate)], the “Size (nm)” value [1] is reported as 123 nm, the PDI [1] is reported as 0.038 and the “EC50 Hela (ng/well)” value (Hela cells) is reported as 0.57 ng/well. The “EC50 Hek293F (ng/well)” value (HEK293F cells) was 0.35 ng/well and the EE % [2] was 97%.
With `CCCCCCCCC(CCCCCCC)C(=O)O[C@@H]1CC2(CCN(CCCCO)CC2)C[C@H]1OC(=O)C(CCCCCCC)CCCCCCCC` (mixture of isomers) [Example 66, rac-(2R,3R)-8-(4-hydroxybutyl)-8-azaspiro[4.5]decane-2,3-diyl bis(2-heptyldecanoate)] the “Size (nm)” value [1] was 78 nm, the PDI [1] was 0.146 and the “EC50 Hela (ng/well)” value (Hela cells) was 2.2 ng/well. For the same compound, the “EC50 Hek293F (ng/well)” value (HEK293F cells) was 1.1 ng/well and the EE % [2] was 97%.
With `CCCCCCCCCC(CCCCCC)C(=O)O[C@@H]1CC2(CCN(CCCCO)CC2)C[C@H]1OC(=O)C(CCCCCC)CCCCCCCCC` (mixture of isomers) [Example 67, rac-(2R,3R)-8-(4-hydroxybutyl)-8-azaspiro[4.5]decane-2,3-diyl bis(2-hexylundecanoate)] the “Size (nm)” value [1] was 89 nm, the PDI [1] was 0.127 and the “EC50 Hela (ng/well)” value (Hela cells) was 2.0 ng/well. The “EC50 Hek293F (ng/well)” value (HEK293F cells) was 1.4 ng/well and the EE % [2] was 96%.
For `CCCCCCCCC(CCCCCC)C(=O)O[C@@H]1CC2(CCN(CCCCO)CC2)C[C@H]1OC(=O)C(CC)CCCCCCC` (mixture of isomers) [Example 70, rac-(2R,3R)-3-((2-ethylnonanoyl)oxy)-8-(4-hydroxybutyl)-8-azaspiro[4.5]decan-2-yl 2-hexyldecanoate], the “Size (nm)” value [1] was 116 nm, the PDI [1] was 0.110 and the “EC50 Hela (ng/well)” value (Hela cells) was 1.2 ng/well. For the same compound, the “EC50 Hek293F (ng/well)” value (HEK293F cells) was 3.0 ng/well and the EE % [2] was 98%.
For `CCCCCCCC(CCCCCCC)C(=O)O[C@@H]1CC2(CCN(CCCCO)CC2)C[C@H]1OC(=O)C(CCCCCCC)CCCCCCC` (single isomer, unassigned) [Example 57, (2R*,3R*)-8-(4-hydroxybutyl)-8-azaspiro[4.5]decane-2,3-diyl bis(2-heptylnonanoate)], the “Size (nm)” value [1] was 74 nm, the PDI [1] was 0.118 and the “EC50 Hela (ng/well)” value (Hela cells) was 4.7 ng/well. For the same compound, the “EC50 Hek293F (ng/well)” value (HEK293F cells) was 2.9 ng/well and the EE % [2] was 99%.
